Test results published in ChEMBL document CHEMBL1146187, “Synthesis, molecular modeling studies, and selective inhibitory activity against monoamine oxidase of N,N'-bis[2-oxo-2H-benzopyran]-3-carboxamides” (Bioorg Med Chem Lett, 2006).

How the values were obtained:
[1] = target: T1, Amine oxidase [flavin-containing] A (Bos taurus, UniProt P21398); assay: Inhibition of bovine brain mitochondrial MAOA
T1 sequence (P21398 whole entry): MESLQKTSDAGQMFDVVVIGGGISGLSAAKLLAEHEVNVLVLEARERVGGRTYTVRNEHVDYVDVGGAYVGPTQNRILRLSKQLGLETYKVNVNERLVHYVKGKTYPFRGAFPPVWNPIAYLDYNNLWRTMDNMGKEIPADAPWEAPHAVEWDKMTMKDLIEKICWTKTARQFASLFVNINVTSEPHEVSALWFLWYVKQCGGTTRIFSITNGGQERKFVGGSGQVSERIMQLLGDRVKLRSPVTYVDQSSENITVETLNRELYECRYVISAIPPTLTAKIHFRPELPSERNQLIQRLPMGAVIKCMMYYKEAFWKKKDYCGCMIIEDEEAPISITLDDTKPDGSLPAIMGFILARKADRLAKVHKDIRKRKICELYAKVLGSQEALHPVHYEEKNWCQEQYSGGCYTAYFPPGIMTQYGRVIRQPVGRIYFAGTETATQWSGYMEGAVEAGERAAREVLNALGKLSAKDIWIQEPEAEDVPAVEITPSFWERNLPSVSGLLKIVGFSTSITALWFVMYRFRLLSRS

[2] = target: T2, Amine oxidase [flavin-containing] B (Bos taurus, UniProt P56560); assay: Inhibition of bovine brain mitochondrial MAOB
T2 sequence (P56560 whole entry): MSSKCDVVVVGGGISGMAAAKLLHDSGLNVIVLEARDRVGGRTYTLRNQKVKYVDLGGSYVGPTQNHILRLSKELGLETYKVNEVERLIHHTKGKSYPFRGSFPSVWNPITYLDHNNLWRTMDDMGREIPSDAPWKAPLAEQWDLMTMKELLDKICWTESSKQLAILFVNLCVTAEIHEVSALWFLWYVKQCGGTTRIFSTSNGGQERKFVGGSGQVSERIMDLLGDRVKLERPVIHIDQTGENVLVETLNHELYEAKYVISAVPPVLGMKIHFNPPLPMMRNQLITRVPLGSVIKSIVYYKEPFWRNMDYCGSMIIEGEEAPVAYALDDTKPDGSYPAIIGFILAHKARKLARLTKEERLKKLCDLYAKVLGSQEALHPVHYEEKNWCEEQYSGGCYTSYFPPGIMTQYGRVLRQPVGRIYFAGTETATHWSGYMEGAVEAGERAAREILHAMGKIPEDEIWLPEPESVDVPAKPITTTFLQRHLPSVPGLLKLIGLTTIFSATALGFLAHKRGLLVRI

SMILES | Ki [1] [nM] | Ki [2] [nM]
O=C(N[C@H]1CCCC[C@@H]1NC(=O)c1cc2ccccc2oc1=O)c1cc2ccccc2oc1=O | 182 | 1410
O=C(Nc1ccccc1NC(=O)c1cc2ccccc2oc1=O)c1cc2ccccc2oc1=O | 16.2 | 3020
O=C(NCCCCCCNC(=O)c1cc2ccccc2oc1=O)c1cc2ccccc2oc1=O | 3.98 | 1820
O=C(NCCNC(=O)c1cc2ccccc2oc1=O)c1cc2ccccc2oc1=O | 33.1 | 6310
O=C(Nc1ccc(NC(=O)c2cc3ccccc3oc2=O)cc1)c1cc2ccccc2oc1=O | 2400 | 1740
O=C(NCCCCNC(=O)c1cc2ccccc2oc1=O)c1cc2ccccc2oc1=O | 1 | 1000
COc1ccc2cc(C(=O)NCCCCNC(=O)c3cc4ccc(OC)cc4oc3=O)c(=O)oc2c1 | 170 | 1410
